Source: ChEMBL document CHEMBL2429832, “N-substituted 8-aminopentacyclo[5.4.0.0(2,6).0(3,10).0(5,9)]undecanes as σ receptor ligands with potential neuroprotective effects” (Bioorg Med Chem, 2013)

What was measured:
[1] = biological target: T1, Alpha-2B adrenergic receptor (Homo sapiens) (UniProt P18089); assay: Inhibition of adrenergic alpha2B receptor (unknown origin) at 10 uM by PDSP assay relative to control
T1 sequence (whole entry): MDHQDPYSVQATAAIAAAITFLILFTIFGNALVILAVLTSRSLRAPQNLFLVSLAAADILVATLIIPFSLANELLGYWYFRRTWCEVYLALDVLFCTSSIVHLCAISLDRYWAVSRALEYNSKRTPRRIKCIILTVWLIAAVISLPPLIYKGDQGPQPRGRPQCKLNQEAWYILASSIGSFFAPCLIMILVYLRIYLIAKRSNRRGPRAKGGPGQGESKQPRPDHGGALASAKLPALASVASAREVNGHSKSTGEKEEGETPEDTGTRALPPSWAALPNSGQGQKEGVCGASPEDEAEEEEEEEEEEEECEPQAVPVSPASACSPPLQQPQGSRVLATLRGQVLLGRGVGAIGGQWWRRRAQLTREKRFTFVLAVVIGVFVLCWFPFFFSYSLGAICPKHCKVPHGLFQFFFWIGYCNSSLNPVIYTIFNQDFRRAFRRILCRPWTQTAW

[2] = biological target: T2, Muscarinic acetylcholine receptor M2 (Homo sapiens, UniProt P08172); assay: Inhibition of muscarinic M2 receptor (unknown origin) by PDSP assay
T2 sequence (P08172 whole entry): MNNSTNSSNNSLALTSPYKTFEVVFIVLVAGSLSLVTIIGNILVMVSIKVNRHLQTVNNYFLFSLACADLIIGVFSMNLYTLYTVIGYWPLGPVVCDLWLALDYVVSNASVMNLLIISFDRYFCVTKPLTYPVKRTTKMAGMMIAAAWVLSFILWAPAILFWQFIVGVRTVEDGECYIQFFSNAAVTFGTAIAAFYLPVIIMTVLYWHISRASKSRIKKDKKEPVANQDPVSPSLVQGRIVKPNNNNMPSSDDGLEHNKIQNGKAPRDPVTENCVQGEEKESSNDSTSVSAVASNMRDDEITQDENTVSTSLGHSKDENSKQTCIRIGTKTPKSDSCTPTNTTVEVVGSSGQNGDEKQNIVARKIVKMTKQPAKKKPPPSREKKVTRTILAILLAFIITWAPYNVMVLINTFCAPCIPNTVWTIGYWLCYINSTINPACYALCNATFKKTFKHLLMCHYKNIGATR

[3] = biological target: T3, Alpha-1D adrenergic receptor (Homo sapiens) (UniProt P25100); assay: Inhibition of adrenergic alpha1D receptor (unknown origin) at 10 uM by PDSP assay relative to control
T3 sequence (whole entry): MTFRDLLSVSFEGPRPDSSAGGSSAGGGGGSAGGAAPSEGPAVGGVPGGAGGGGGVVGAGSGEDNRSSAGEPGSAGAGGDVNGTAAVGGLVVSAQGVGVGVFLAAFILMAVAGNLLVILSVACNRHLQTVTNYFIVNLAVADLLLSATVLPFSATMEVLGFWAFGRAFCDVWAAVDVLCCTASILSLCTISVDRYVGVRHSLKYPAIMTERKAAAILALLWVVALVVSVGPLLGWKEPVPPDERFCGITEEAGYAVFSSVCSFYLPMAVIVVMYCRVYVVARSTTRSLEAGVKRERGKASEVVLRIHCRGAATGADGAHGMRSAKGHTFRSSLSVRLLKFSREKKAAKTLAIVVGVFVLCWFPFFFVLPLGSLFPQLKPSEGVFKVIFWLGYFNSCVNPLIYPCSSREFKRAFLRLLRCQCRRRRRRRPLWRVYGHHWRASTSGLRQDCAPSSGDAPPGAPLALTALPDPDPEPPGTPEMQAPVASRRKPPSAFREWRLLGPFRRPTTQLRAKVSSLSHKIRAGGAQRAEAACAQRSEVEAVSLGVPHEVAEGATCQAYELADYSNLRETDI

[4] = biological target: 5-hydroxytryptamine receptor 6 (Homo sapiens, UniProt P50406); assay: Inhibition of 5-HT6 receptor (unknown origin) at 10 uM by PDSP assay relative to control
Sequence of 5-hydroxytryptamine receptor 6 (P50406 whole entry): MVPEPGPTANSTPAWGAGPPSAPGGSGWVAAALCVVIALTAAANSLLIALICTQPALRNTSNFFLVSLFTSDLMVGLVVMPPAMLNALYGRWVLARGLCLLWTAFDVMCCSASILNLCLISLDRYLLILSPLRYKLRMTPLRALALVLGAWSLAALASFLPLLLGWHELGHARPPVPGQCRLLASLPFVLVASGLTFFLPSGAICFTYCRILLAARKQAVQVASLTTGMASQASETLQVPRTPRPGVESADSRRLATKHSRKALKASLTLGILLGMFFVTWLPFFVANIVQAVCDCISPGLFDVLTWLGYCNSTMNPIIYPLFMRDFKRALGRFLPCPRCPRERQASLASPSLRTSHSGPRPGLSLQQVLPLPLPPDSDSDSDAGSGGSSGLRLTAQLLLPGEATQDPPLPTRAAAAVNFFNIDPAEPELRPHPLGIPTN

[5] = biological target: T4, 5-hydroxytryptamine receptor 2C (Homo sapiens) (UniProt P28335); assay: Inhibition of 5-HT2C receptor (unknown origin) at 10 uM by PDSP assay relative to control
T4 sequence (whole entry): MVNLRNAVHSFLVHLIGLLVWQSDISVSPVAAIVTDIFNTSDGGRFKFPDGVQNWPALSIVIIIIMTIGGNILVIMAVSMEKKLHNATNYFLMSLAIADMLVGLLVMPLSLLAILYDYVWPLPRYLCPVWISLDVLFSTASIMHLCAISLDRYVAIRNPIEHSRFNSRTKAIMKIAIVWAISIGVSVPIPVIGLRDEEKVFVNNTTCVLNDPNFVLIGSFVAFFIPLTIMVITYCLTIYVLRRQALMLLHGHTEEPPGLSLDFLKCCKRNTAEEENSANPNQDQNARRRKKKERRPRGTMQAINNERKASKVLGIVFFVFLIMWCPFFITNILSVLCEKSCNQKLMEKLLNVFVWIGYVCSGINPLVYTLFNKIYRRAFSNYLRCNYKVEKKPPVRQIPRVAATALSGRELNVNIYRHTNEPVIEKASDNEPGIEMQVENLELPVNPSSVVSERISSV

[6] = species: Rattus norvegicus; assay: Inhibition of rat brain BZP receptor at 10 uM by PDSP assay relative to control
[7] = biological target: Sodium-dependent serotonin transporter (Homo sapiens, UniProt P31645); assay: Displacement of [3H]-citalopram from human SERT expressed in HEK cell membranes at 10 uM relative to control; conditions: HEK293
Sequence of Sodium-dependent serotonin transporter (P31645 whole entry, looked up): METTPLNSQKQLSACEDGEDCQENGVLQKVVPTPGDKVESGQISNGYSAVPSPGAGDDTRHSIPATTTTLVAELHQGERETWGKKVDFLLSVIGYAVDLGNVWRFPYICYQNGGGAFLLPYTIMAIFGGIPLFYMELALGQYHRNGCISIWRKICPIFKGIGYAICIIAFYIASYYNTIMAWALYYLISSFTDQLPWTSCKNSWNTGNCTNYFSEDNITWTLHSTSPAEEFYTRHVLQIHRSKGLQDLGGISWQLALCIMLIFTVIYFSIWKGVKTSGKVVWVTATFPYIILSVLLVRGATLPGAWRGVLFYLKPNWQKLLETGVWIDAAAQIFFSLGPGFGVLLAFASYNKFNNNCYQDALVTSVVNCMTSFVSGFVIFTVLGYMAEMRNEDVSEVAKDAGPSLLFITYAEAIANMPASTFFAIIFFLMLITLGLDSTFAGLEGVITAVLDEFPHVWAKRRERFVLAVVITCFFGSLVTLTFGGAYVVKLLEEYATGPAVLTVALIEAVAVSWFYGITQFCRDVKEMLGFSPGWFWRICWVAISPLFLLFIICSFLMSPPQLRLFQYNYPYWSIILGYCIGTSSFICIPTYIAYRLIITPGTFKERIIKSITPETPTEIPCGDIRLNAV

[8] = biological target: Kappa-type opioid receptor (Homo sapiens, UniProt P41145); assay: Inhibition of kappa opioid receptor (unknown origin) at 10 uM by PDSP assay relative to control
Sequence of Kappa-type opioid receptor (P41145 whole entry): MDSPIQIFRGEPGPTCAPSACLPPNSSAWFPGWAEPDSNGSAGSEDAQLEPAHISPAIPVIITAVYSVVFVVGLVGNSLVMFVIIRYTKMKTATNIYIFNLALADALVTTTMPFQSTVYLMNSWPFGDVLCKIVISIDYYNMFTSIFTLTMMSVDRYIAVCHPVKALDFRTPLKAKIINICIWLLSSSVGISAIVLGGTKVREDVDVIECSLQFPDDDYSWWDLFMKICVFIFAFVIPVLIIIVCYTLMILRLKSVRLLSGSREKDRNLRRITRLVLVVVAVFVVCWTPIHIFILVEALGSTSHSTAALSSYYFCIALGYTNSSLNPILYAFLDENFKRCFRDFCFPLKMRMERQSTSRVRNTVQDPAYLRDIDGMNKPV

[9] = biological target: 5-hydroxytryptamine receptor 1B (Homo sapiens, UniProt P28222); assay: Inhibition of 5-HT1B receptor (unknown origin) at 10 uM by PDSP assay relative to control
Sequence of 5-hydroxytryptamine receptor 1B (P28222 whole entry): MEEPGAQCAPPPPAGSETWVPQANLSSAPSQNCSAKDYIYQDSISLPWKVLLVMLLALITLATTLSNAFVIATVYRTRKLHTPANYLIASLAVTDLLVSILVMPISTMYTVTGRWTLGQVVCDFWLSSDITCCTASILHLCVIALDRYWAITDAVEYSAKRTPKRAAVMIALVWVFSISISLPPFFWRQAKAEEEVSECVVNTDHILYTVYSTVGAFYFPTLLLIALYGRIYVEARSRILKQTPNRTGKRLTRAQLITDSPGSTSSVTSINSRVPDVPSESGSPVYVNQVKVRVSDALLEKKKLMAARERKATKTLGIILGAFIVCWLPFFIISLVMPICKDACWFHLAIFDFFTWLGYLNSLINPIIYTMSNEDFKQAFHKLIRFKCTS

[10] = biological target: T5, Muscarinic acetylcholine receptor M5 (Homo sapiens) (UniProt P08912); assay: Inhibition of muscarinic M5 receptor (unknown origin) at 10 uM by PDSP assay relative to control
T5 sequence (whole entry): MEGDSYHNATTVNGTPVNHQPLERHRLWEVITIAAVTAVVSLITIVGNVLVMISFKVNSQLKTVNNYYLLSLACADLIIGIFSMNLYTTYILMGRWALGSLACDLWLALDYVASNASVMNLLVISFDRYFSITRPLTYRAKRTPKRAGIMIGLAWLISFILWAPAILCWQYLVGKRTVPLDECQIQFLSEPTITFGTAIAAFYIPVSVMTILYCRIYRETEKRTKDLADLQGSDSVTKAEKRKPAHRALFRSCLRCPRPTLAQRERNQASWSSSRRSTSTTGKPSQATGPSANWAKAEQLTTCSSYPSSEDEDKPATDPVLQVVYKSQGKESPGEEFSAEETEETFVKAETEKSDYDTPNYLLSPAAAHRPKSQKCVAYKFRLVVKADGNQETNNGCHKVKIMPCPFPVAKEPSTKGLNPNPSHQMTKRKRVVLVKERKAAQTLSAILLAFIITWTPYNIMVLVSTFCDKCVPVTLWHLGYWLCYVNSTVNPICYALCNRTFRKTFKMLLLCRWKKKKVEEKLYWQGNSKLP

Structure (SMILES) | inhibition [1] [%] | Ki [2] [nM] | inhibition [3] [%] | inhibition [4] [%] | inhibition [5] [%] | inhibition [6] [%] | inhibition [7] [%] | inhibition [8] [%] | inhibition [9] [%] | inhibition [10] [%]
CN(CCc1cccc(F)c1)[C@H]1C2C3CC4C2C(=O)C2C4C3C21 (stereo partly specified) | < 50 | 2290 | < 50 | < 50 | < 50 | < 50 | < 50 | < 50 | < 50 | 
CN(CCc1ccccn1)[C@H]1C2C3CC4C2C(=O)C2C4C3C21 (stereo partly specified) |  | > 10000 | < 50 | < 50 | < 50 | < 50 | < 50 | < 50 | < 50 | < 50
CN(CCc1ccccc1)[C@H]1C2C3CC4C5C3CC2C5C41 (stereo partly specified) |  |  | < 50 | < 50 | < 50 | < 50 | < 50 | < 50 | < 50 | < 50
C1C2C3CC4C2C2C1C3[C@H](NCC13C5C6C7C5C1C7C63)C42 (stereo partly specified) |  | 195 | < 50 | < 50 | < 50 | < 50 | < 50 |  | < 50 | 
c1ccc(CCN[C@H]2C3C4CC5C6C4CC3C6C52)nc1 (stereo partly specified) |  | 2790 | < 50 |  | < 50 |  | < 50 | < 50 | < 50 | 
CN(Cc1ccc2c(c1)OCO2)[C@H]1C2C3CC4C5C3CC2C5C41 (stereo partly specified) | < 50 |  | < 50 | < 50 | < 50 |  |  | < 50 | < 50 | < 50
COc1ccc(CN[C@H]2C3C4CC5C6C4CC3C6C52)cc1OC (stereo partly specified) |  |  | < 50 |  | < 50 |  |  | < 50 | < 50 | < 50
c1ccc(CN[C@H]2C3C4CC5C6C4CC3C6C52)cc1 (stereo partly specified) |  |  | < 50 | < 50 | < 50 |  | < 50 |  | < 50 | < 50
C1CCC(CN[C@H]2C3C4CC5C6C4CC3C6C52)CC1 (stereo partly specified) |  | 1010 | < 50 | < 50 | < 50 | < 50 | < 50 | < 50 | < 50 | 
CN(CCCc1cccc(F)c1)[C@H]1C2C3CC4C2C(=O)C2C4C3C21 (stereo partly specified) | < 50 | 487 | < 50 | < 50 | < 50 | < 50 | < 50 | < 50 | < 50 | 
c1ccc(CCN[C@H]2C3C4CC5C6C4CC3C6C52)cc1 (stereo partly specified) |  | 1030 | < 50 | < 50 | < 50 |  | < 50 | < 50 |  | 
CN(Cc1ccccc1)[C@H]1C2C3CC4C5C3CC2C5C41 (stereo partly specified) | < 50 |  | < 50 | < 50 | < 50 | < 50 | < 50 | < 50 | < 50 | < 50

More lines, now with the values ahead:

inhibition [1] [%] | Ki [2] [nM] | inhibition [3] [%] | inhibition [4] [%] | inhibition [5] [%] | inhibition [6] [%] | inhibition [7] [%] | inhibition [8] [%] | inhibition [9] [%] | inhibition [10] [%] | Structure (SMILES)
< 50 |  | < 50 | < 50 | < 50 | < 50 | < 50 | < 50 | < 50 | < 50 | COc1ccc(CN(C)[C@H]2C3C4CC5C6C4CC3C6C52)cc1OC (stereo partly specified)
< 50 |  | < 50 | < 50 | < 50 | < 50 | < 50 | < 50 | < 50 | < 50 | COc1ccc(CN(C)[C@H]2C3C4CC5C3C(=O)C3C5C4C32)cc1OC (stereo partly specified)
 |  | < 50 | < 50 | < 50 | < 50 |  |  | < 50 | < 50 | COc1cc(CN[C@H]2C3C4CC5C6C4CC3C6C52)cc(OC)c1OC (stereo partly specified)
< 50 | 1940 | < 50 | < 50 | < 50 | < 50 | < 50 | < 50 | < 50 |  | CN(CCc1ccccc1)[C@H]1C2C3CC4C2C(=O)C2C4C3C21 (stereo partly specified)
< 50 |  | < 50 | < 50 | < 50 | < 50 | < 50 | < 50 | < 50 | < 50 | CN(CC1CCCCC1)[C@H]1C2C3CC4C5C3CC2C5C41 (stereo partly specified)
< 50 |  | < 50 | < 50 | < 50 | < 50 |  | < 50 | < 50 | < 50 | COc1cc(CN(C)[C@H]2C3C4CC5C6C4CC3C6C52)cc(OC)c1OC (stereo partly specified)
< 50 |  | < 50 | < 50 | < 50 | < 50 | < 50 | < 50 | < 50 | < 50 | CN(CCCc1cccc(F)c1)[C@H]1C2C3CC4C5C3CC2C5C41 (stereo partly specified)
 | 4410 | < 50 | < 50 | < 50 | < 50 |  | < 50 | < 50 | < 50 | c1cc2c(cc1CN[C@H]1C3C4CC5C6C4CC3C6C51)OCO2 (stereo partly specified)
